The values that follow come from patent US20240165129A1, “METHODS OF TREATING PAIN AND DEPRESSION” (priority 2022, published 2024).

One assay concerns mice brain after MCAO. The following applies: mouse, in vivo.
Assay [1] deals with primary cultured mouse cortical neurons. Kind of assay: Acidosis-induced neuronal injury, FDA/PI staining. Conditions: 1 and 10 μM, pH 6.0 for 1.5 h, 24 h.
The target in assay [2] is T1, heteromeric ASIC1a/2a channels (Mus musculus, UniProt Q6NXK8+Q925H0).
T1 sequence (Q6NXK8 1-526): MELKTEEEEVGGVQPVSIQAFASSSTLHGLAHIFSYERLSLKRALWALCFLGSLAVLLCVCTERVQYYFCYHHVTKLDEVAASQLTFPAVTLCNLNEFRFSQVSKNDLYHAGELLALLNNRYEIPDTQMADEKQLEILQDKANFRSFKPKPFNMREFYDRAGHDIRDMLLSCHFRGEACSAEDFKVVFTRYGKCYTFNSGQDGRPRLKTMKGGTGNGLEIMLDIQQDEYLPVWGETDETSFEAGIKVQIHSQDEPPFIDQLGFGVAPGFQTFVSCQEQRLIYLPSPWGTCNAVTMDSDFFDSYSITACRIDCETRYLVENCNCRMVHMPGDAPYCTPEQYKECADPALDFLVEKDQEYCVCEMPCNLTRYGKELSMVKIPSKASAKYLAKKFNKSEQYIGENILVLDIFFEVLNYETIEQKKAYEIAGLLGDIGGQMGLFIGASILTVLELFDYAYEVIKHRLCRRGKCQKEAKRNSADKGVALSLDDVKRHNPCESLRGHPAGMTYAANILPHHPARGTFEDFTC
T1 sequence (Q925H0 1-512): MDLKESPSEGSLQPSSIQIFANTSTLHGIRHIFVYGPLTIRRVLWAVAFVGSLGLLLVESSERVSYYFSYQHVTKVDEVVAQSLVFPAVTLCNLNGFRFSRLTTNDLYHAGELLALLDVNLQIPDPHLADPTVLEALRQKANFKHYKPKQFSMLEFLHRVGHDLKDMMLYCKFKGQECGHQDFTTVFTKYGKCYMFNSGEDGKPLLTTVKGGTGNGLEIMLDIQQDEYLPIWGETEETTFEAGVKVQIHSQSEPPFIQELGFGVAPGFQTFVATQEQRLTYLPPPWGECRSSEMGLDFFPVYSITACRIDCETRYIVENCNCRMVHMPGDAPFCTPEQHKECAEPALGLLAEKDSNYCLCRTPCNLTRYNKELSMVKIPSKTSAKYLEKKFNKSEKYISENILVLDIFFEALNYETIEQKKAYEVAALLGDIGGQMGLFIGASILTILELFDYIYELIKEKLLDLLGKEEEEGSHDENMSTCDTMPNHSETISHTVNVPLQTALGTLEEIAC
Kind of assay: ASIC currents in cortical neurons in the presence of PcTx1 (heteromeric channels). Conditions: Triol 10 μM.
Experimental: Mouse cortical neurons were cultured. Pregnant Swiss mice were purchased from Charles River. The use of mice for neuronal cultures was approved by the Institutional Animal Care and Use Committee of Morehouse School of Medicine. Briefly, the brains of fetuses (embryonic day 16) were removed quickly from anesthetized pregnant mice and placed in cold Ca2+/Mg2+-free PBS. Cerebral cortices were dissected and incubated with 0.05% trypsin-EDTA for 10 min at 37° C., followed by trituration. Cells were plated in poly-L-ornithine-coated culture dishes. Cells were initially cultured in minimal essential medium (MEM) with 10% fetal bovine serum (FBS), 10% horse serum, and 25 mM glucose and maintained at 37° C. in a humidified 5% CO2 atmosphere incubator for 24 h. After that, the culture medium was completely replaced by Neurobasal medium supplemented with B-27 (Invitrogen) and then changed twice a week. Neurons were used for the experiments between days 10 and 14.
ASIC currents were recorded using patch-clamp techniques. Pipette solution contained (mM): 140 CsF, 1 CaCl2, 2 MgCl2, 11 EGTA, 2 tetraethylammonium chloride, 10 HEPES and 4 MgATP, pH 7.3 adjusted with CsOH, 290-300 mOsm. […] Currents were recorded with Axopatch 200B amplifier, filtered at 2 kHz, and digitized at 5 kHz using Digidata 1332A. […]

The next assay deals with T2, homomeric ASIC1β (Rattus norvegicus, UniProt P55926).
T2 sequence (P55926 1-559 isoform P55926-3): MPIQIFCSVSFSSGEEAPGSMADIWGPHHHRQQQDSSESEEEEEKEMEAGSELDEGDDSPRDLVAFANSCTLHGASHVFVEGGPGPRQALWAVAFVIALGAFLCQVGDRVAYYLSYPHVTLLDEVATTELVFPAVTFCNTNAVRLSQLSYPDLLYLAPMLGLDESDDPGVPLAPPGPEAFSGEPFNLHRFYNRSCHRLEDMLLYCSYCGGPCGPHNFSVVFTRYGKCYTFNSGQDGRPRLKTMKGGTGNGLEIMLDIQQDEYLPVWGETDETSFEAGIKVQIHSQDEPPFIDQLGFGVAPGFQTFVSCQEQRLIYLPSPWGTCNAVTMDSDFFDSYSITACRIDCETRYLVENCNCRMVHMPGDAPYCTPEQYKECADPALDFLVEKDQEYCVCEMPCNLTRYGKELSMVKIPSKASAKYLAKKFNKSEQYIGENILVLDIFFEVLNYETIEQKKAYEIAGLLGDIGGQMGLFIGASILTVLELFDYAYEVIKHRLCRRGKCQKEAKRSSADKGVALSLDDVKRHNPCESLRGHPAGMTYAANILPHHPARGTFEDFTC
Briefly: Patch-clamp recording of ASIC1β currents in CHO cells with transient expression. Conditions: 10 μM, pH drop 7.4 to 6.0, n=4-5. A general note: In patch-clamp work, channel activity is measured electrically.

Assay [3] has as its system corticosterone-induced depression-like behaviors in mice. Briefly: Mouse model of depression induced by repeated corticosterone injections. Type of assay: in vivo. Conditions: 12 mg/kg i.p. daily, corticosterone 40 mg/kg i.p. for 21 days. The method, then:
Based on the fact that Triol inhibits ASIC1a, Triol can have anti-depression activity. […] A mouse model of depression induced by repeated corticosterone injections is used. Depression-like behaviors are induced by repeated administration of corticosterone (40 mg/kg, i.p.), once a day for 21 days in mice. Mice arerandomly assigned to 4 experimental groups (n=10/group). Control, corticosterone, corticosterone +Vehicle (20% HP-β-CD) and corticosterone+ Triol (12 mg/kg, i.p.). Triol is administered daily. The sucrose consumption test, open-field test (OFT), tail suspension test (TST), and forced swimming test (FST) are used to evaluate the therapeutic effect of Triol.

Assay [4] relates to mice (depression-like behavior). Briefly: Sucrose preference and chronic (unpredictable) mild stress. Type of assay: in vivo, mouse. As to the method:
Sucrose preference is assessed in individually housed, stressed and unstressed mice. Briefly, two bottles (one 8% sucrose and one water) are placed in each cage for 3 d; 2 d to habituate and 1 d to assess sucrose preference. The locations of the bottles are rotated each 24-h period. At the beginning and end of the final 12-h period both bottles are weighed, and sucrose preference is defined as sucrose solution consumed/total liquid consumed×100%. Unstressed mice only undergo the 3 d sucrose preference assessment. Stressed mice also undergo 6 d of unpredictable stressors in the following order: restraint (3 h), wetted bedding (12 h), restraint (3 h), 45° angle cage tilt (12 h), paired housing with an unfamiliar mouse (1 h), exposure to a predator odor (1 h) (trimethylthiazoline, Pherotech International). Sucrose preference is then assessed during the final overnight period as described above.

The test system is the same in assay [5]. Briefly: Tail suspension test. It counts as in vivo, mouse. As to the method: This test is performed by the Tennessee Mouse Genome Consortium (tnmouse.org/neuromutagenesis/behavioral). Mice are suspended by the tail from a ledge ˜60 cm from the ground with adhesive tape. Immobility is defined as the absence of movement and is scored over a 6—min trial.

Entries after “also recorded” stand apart in the source; their conditions may differ.

Experimental for homomeric ASIC1β: Chinese hamster ovary (CHO) cells were cultured in F12-K medium (Invitrogen) plus 10% fetal bovine serum, 50 units/nal penicillin, and 50 μg/m1 streptomycin. At ˜50% confluence, CHO cells were co-transfected with cDNAs for rat ASIC1β, ASIC2a, or ASIC3, and that for GFP. GFP-positive cells were used for electrophysiological recordings 24-72 h after transient transfection.
ASIC currents were recorded using patch-clamp techniques. Pipette solution contained (mM): 140 CsF, 1 CaCl2, 2 MgCl2, 11 EGTA, 2 tetraethylammonium chloride, 10 HEPES and 4 MgATP, pH 7.3 adjusted with CsOH, 290-300 mOsm. Extracellular Fluid (ECF) contained (mM): 140 NaCl, 5.4 KCl, 2 CaCl2, 1 MgCl2, 10 glucose, and 10 HEPES (320-330 mOsm). A multi-barrel perfusion system (SF-77 Warner Instruments, Hamden, CT) was used to obtain a rapid exchange of ECFs. Currents were recorded with Axopatch 200B amplifier, filtered at 2 kHz, and digitized at 5 kHz using Digidata 1332A. ASIC currents were induced by rapid perfusion of the cells with acidic ECF for 4 seconds. Unless otherwise stated, cells were clamped at a holding potential of −60 mV. […] Data were excluded for statistical analysis when access resistance was >10 MΩ or leak current was >100 pA.
Therefore, the study used pH 6.0 and 4.5 to activate ASIC1β and ASIC2a currents, respectively. […]

As for `CC(C)CCC[C@@H](C)[C@H]1CC[C@H]2[C@@H]3C[C@@H](O)[C@@]4(O)C[C@@H](O)CC[C@]4(C)[C@H]3CC[C@]12C` [Triol, cholestane-3β, 5α, 6β-triol], in the assay on mice brain after MCAO, the “infarct volume, Triol in the presence of PcTx-1” value was “no additional reduction” and the “protection against ischemic brain injury” value is “didn't show additional protection; also recorded: A similar result; also recorded: significant protection”. In assay [1], the “death rate of cortical neurons (PI staining)” value is “decrease death rate” and the “survival rate of cortical neurons (FDA staining)” value was “increase survival rate”. Besides, the “effect on remaining ASIC currents in the presence of PcTx1” value in assay [2] (PcTx1 40 nM, PcTx-1 sensitive neurons, n=9) is reported as “further inhibited”. Besides, the “effect on PcTx1 insensitive ASIC currents” value in assay [2] (PcTx-1 insensitive neurons (3 of 12 cells)) is given as “still inhibit these currents”. On homomeric ASIC1β, the “effect on ASIC1β currents” value was “no significant effect”. For the same molecule, the “antidepressant activity (sucrose consumption, OFT, TST, FST)” value in assay [3] is on record as “alleviating corticosterone-induced depression-like behaviors”. Further, the “depression-like behavior following unpredictable mild stress” value in assay [4] is “decreased levels of depression-like behavior”. Moreover, the “depression-like behavior in the tail suspension test” value in assay [5] is on record as “decreased levels of depression-like behavior”.
